System: highly tumorigenic variant of the M-3 cells
Type: in vivo, mice

LFEAIEGFI [Leu Phe Glu Ala Ile Glu Gly Phe Ile, viral peptide derived from the influenza virus haemagglutinin, H2-K^d-ligand, used as foreign peptide to charge tumour cells]
animals cured (cells charged with peptide using TfpL/DNA complexes): 6 out of 8 | animals developed tumours (peptide simply mixed with the cells (adjuvant)): 7 out of 8
